Read-outs that look alike come from different tables or passages of the source.
Assays:
[1] = system: EGFR L858R/T790M/C797S Ba/F3 cell line; experiment: Ba/F3 cell proliferation (MTS assay), EGFR L858R/T790M/C797S; format: cell-based, murine; details: for Activity (% cetuximab); inhibition of proliferation: compound at 1 μM in the presence of 1 μg/mL cetuximab, EGFR L858R/T790M/C797S; for Activity (% DMSO control); inhibition of proliferation: compound at 1 μM, EGFR L858R/T790M/C797S Ba/F3
Procedure: (§1) The EGFR mutant L858R, Del E746_A750, L858R/T790M, DelE746_A750/T790M, L858R/T790M/C797S and Del/T790M/C797S Ba/F3 cells were previously described (Zhou et al., Nature 462, (2009), 1070-1074). All cell lines were maintained in RPM 1640 (Cellgro; Mediatech Inc., Herndon, Calif.) supplemented with 10% FBS 100 units/mL penicillin, 100 units/mL streptomycin, and 2 mM glutamine. L858R cells were maintained in ACL-4 media (Invitrogen, Carlsbad, Calif.) supplemented with 5% FBS, 100 units/mL penicillin, 100 units/mL streptomycin, and 2 mM glutamine. The EGFR 1941R mutation was introduced via site directed mutagenesis using the Quick Change Site-Directed Mutagenesis kit (Stratagene: La Jolla, Calif.) according to the manufacturer's instructions. All constructs were confirmed by DNA sequencing. The constructs were shuttled into the retroviral vector JP1540 using the BD Creator™ System (BD Biosciences). Ba/F3 cells were infected with retrovirus and according to standard protocols, as described previously (Zhou 2009). Stable clones were obtained by selection in puromycin (2 μg/ml).
(§2) Growth and inhibition of growth was assessed by MTS assay and was performed according to previously established methods (Zhou 2009). The MTS assay is a colorimetric method for determining the number of viable cells that is based on the bioreduction of MTS by cells to a formazan product that is soluble in cell culture medium and can be detected spectrophotometrically. Ba/F3 cells of different EGFR genotypes were exposed to treatment and the number of cells used per experiment determined empirically and has been previously established (Zhou 2009). All experimental points were set up in six wells and all experiments were repeated at least three times. […] The curves were fitted using anon-linear regression model with a sigmoidal dose response.

[2] = biological target: T1, EGFR T790M/L858R Ba/F3 cell line (Homo sapiens, UniProt P00533, T790M/L858R, cells depend on it); experiment: Ba/F3 cell proliferation (MTS assay), EGFR T790M/L858R; format: cell-based, murine; details: for Activity (% cetuximab); inhibition of proliferation: compound at 1 μM in the presence of 1 μg/mL cetuximab; for Activity (% cetuximab); inhibition of proliferation / Activity (% DMSO control); inhibition of proliferation: EGFR T790M/L858R Ba/F3; for Activity (% DMSO control); inhibition of proliferation: compound at 1 μM
T1 construct: "The constructs were shuttled into the retroviral vector JP1540 using the BD Creator™ System (BD Biosciences)
Procedure: as §1, with “All” for “The EGFR mutant L858R, Del E746_A750, L858R/T790M, DelE746_A750/T790M, L858R/T790M/C797S and Del/T790M/C797S Ba/F3 cells were previously described (Zhou et al., Nature 462, (2009), 1070-1074). All”, “L858R cells were maintained in ACL-4 media (Invitrogen, Carlsbad, Calif.) supplemented with 5% FBS, 100 units/mL penicillin, 100 units/mL streptomycin, and 2 mM glutamine.” left out
as §2, with “Ba/F3 cells of different EGFR genotypes were exposed to treatment and the number of cells used per experiment determined empirically and has been previously established (Zhou 2009).” left out

[3] = biological target: T2, recombinant EGFR T790M/L858R kinase (Homo sapiens, UniProt P00533, L858R/T790M); experiment: HTRF-based EGFR biochemical assay
T2 construct: Constructs spanning residues 696-1022 of the human EGFR; GST (cleaved yes); made in house; host or cells: Sf9 insect cells
Procedure: EGFR kinase proteins were purified by glutathione-affinity chromatography followed by size-exclusion chromatography after cleavage with TEV or thrombin to remove the GST fusion partner following established procedures. (Yun 2008; Yun 2007).
EGFR biochemical assays were carried out using a homogeneous time-resolved fluorescence (HTRF) assay as described previously. The reaction mixtures contained 1 μM biotin-Lck-peptide substrate, wild type or mutant EGFR enzyme in reaction buffer (50 mM HEPES pH 7.1, 10 mM MgCl2, 0.01% BSA. 1 mM TCEP and 0.1 mM Na3VO4) at a final volume of 10 μL. […] All reactions were carried out at room temperature in white ProxiPlate™ 384-well Plus plates (PerkinElmer) and were quenched with 5 μL of 0.2 M EDTA at 60 min. Five μL per well of the detection reagent containing 2.5 ng PT66K (Cis-bio) and 0.05 μg SAXL (Prozyme) were added, and the plates were then incubated at room temperature for 1 hour and read with an EnVision plate reader.

[4] = absence of cetuximab, read-out: Ba/F3 cellular activity (EC50) T790M/L858R
[5] = read-out: Ba/F3 cellular activity (EC50) T790M/L858R + Cetuximab (1 μg/mL), presence of 1 μg/mL cetuximab

T1 sequence (P00533 whole entry T790M/L858R): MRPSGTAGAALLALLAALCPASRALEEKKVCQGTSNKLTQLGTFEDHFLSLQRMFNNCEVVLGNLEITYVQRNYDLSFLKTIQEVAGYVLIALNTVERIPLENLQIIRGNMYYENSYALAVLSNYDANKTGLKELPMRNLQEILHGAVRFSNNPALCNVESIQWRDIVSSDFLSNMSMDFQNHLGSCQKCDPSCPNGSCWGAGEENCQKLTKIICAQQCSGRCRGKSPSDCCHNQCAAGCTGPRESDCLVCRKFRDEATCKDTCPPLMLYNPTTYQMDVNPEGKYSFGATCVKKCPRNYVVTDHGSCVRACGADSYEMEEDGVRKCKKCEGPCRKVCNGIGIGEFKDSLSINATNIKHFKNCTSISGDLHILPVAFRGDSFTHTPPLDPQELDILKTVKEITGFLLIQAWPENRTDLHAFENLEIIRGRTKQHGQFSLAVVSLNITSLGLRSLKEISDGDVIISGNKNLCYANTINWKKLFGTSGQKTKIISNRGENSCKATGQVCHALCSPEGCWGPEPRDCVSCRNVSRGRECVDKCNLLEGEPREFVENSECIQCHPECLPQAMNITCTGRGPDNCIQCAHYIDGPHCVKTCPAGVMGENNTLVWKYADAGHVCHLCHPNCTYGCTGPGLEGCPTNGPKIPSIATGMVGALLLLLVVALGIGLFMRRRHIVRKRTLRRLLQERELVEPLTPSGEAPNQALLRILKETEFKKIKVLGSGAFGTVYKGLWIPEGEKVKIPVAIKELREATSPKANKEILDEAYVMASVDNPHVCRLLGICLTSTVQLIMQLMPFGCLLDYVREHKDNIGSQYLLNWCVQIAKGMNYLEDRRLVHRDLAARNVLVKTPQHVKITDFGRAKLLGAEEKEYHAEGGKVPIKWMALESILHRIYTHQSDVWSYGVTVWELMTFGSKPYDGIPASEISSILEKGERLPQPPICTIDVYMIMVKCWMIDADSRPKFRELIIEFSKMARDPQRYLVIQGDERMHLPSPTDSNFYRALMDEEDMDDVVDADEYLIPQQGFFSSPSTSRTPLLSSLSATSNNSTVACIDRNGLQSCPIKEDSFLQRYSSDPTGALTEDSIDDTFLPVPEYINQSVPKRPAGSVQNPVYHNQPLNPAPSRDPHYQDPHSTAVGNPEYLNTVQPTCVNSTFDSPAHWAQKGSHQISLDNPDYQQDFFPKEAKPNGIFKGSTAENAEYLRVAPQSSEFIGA
T2 sequence (P00533 696-1022 T790M/L858R): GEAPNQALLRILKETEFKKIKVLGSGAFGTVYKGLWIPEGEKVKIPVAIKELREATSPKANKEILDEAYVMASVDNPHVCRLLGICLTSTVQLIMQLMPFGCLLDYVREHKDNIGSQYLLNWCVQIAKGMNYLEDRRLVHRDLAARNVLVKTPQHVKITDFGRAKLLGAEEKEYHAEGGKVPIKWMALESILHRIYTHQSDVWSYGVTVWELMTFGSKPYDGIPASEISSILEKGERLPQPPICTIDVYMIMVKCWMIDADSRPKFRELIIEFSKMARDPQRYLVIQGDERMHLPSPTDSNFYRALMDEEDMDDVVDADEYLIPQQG

Structure (SMILES)	EC50 [2, 4] [nM]	Activity (% cetuximab); inhibition of proliferation [2]	Activity (% DMSO control); inhibition of proliferation [2]	EC50 [2, 5] [nM]	IC50 [3] [nM]	Activity (% cetuximab); inhibition of proliferation [1]	Activity (% DMSO control); inhibition of proliferation [1]
O=C1c2cc(-c3ccc(N4CCNCC4)cc3)ccc2Nc2ccc(F)cc2N1Cc1ccccc1 [Compound I-1]	≥ 750	B (25 ≤ B < 50)	D (75 ≤ D)	500 to 750		B (25 ≤ B < 50)	D (75 ≤ D)
O=C1c2cc(-c3ccc(N4CCNCC4)cc3)ccc2Nc2ccc(F)cc2N1Cc1cccnc1 [Compound I-6]	≥ 750	D (75 ≤ D)	D (75 ≤ D)	≥ 750	≥ 750	D (75 ≤ D)	D (75 ≤ D)
O=C1c2cc(-c3ccc4[nH]ccc4c3)ccc2Nc2ccc(F)cc2N1c1ccccc1 [Compound I-8]	≥ 750	D (75 ≤ D)	D (75 ≤ D)	≥ 750	≥ 750	D (75 ≤ D)	D (75 ≤ D)
O=C1c2cc(-c3ccc4[nH]ccc4c3)ccc2Nc2ccc(F)cc2N1Cc1cccnc1 [Compound I-9]	≥ 750	D (75 ≤ D)	D (75 ≤ D)	≥ 750	≥ 750	D (75 ≤ D)	D (75 ≤ D)
O=C1c2cc(-c3ccc4[nH]ccc4c3)ccc2Nc2ccc(F)cc2N1Cc1nccs1 [Compound I-10]	≥ 750	D (75 ≤ D)	D (75 ≤ D)	≥ 750	≥ 750	C (50 ≤ C < 75)	D (75 ≤ D)
O=C1c2cc(-c3ccc(N4CCNCC4)cc3)ccc2Nc2ncc(F)cc2N1Cc1ccccc1 [Compound I-12]	≥ 750			≥ 750	≥ 750		
O=C1c2cc(-c3ccc(N4CCNCC4)cc3)ccc2Nc2ccncc2N1Cc1ccccc1 [Compound I-13]	≥ 750			≥ 750	≥ 750		
Nc1ccc2c(c1)N(Cc1ccccc1)C(=O)c1cc(-c3ccc4[nH]ccc4c3)ccc1N2 [Compound I-14]	≥ 750			≥ 750	≥ 750		
CC(=O)Nc1ccc2c(c1)N(Cc1ccccc1)C(=O)c1cc(-c3ccc4[nH]ccc4c3)ccc1N2 [Compound I-15]	≥ 750			≥ 750	≥ 750		
CCC(=O)Nc1ccc2c(c1)N(Cc1ccccc1)C(=O)c1cc(-c3ccc4[nH]ccc4c3)ccc1N2 [Compound I-16]	250 to 500			250 to 500	≥ 750		
O=C1c2cc(-c3ccc(N4CCNCC4)cc3)ccc2Nc2ccc(F)cc2N1Cc1ccc2cc[nH]c2c1 [Compound I-19]	≥ 750			≥ 750	≥ 750		

Further lines, with some results ahead:

EC50 [2, 4] [nM]	Activity (% cetuximab); inhibition of proliferation [2]	Activity (% DMSO control); inhibition of proliferation [2]	EC50 [2, 5] [nM]	IC50 [3] [nM]	Structure (SMILES)	Activity (% cetuximab); inhibition of proliferation [1]	Activity (% DMSO control); inhibition of proliferation [1]
≥ 750	B (25 ≤ B < 50)	D (75 ≤ D)	< 250	< 250	O=C1c2cc(-c3ccc4[nH]ccc4c3)ccc2Nc2ccc(F)cc2N1Cc1ccccc1 [Compound I-2]	A (0 ≤ A < 25)	D (75 ≤ D)
≥ 750	B (25 ≤ B < 50)	D (75 ≤ D)	< 250	< 250	CN1CCC(n2cc(-c3ccc4c(c3)C(=O)N(Cc3ccccc3)c3cc(F)ccc3N4)cn2)CC1 [Compound I-3]	C (50 ≤ C < 75)	D (75 ≤ D)
≥ 750	A (0 ≤ A < 25)	D (75 ≤ D)	250 to 500	< 250	O=C1c2cc(-c3ccc(-c4cn[nH]c4)cc3)ccc2Nc2ccc(F)cc2N1Cc1ccccc1 [Compound I-4]	A (0 ≤ A < 25)	D (75 ≤ D)
≥ 750	D (75 ≤ D)	D (75 ≤ D)	≥ 750	≥ 750	O=C1c2cc(-c3ccc(N4CCNCC4)cc3)ccc2Nc2ccc(F)cc2N1c1ccccc1 [Compound I-5]	D (75 ≤ D)	D (75 ≤ D)
≥ 750	C (50 ≤ C < 75)	D (75 ≤ D)	≥ 750	< 250	O=C1c2cc(-c3ccc(N4CCNCC4)cc3)ccc2Nc2ccc(F)cc2N1Cc1nccs1 [Compound I-7]	D (75 ≤ D)	D (75 ≤ D)
				< 250	CN1CCC(c2ccc(-c3ccc4c(c3)C(=O)N(Cc3ccccc3)c3cc(F)ccc3N4)cc2)CC1 [Compound I-17]		
≥ 750			< 250	< 250	O=C1c2cc(-c3ccc(N4CCNCC4)cc3)ccc2Nc2ccc(F)cc2N1Cc1cccc2cc[nH]c12 [Compound I-18]		
≥ 750			250 to 500	< 250	CN1CCN(c2ccc(Oc3ccc4c(c3)C(=O)N(Cc3ccccc3)c3cc(F)ccc3N4)cc2)CC1 [Compound I-20, 10-benzyl-8-fluoro-2-(4-(4-methylpiperazin-1-yl)phenoxy)-5,10-dihydro-11H-dibenzo[b,e][1,4]diazepin-11-one]		
				< 250	CN1CCC(n2cc(-c3ccc4c(c3)C(=O)N(Cc3cccc(F)c3)c3cc(F)ccc3N4)cn2)CC1 [Compound I-22]		
≥ 750			≥ 750	< 250	CN1CCC(n2cc(-c3ccc4c(c3)C(=O)N(Cc3cccc(Cl)c3)c3cc(F)ccc3N4)cn2)CC1 [Compound I-23]		
≥ 750			≥ 750	< 250	CN1CCC(n2cc(-c3ccc4c(c3)C(=O)N(Cc3cc(F)cc(F)c3)c3cc(F)ccc3N4)cn2)CC1 [Compound I-24]		
≥ 750			≥ 750	< 250	CN1CCC(n2cc(-c3ccc4c(c3)C(=O)N(Cc3cccc5cc[nH]c35)c3cc(F)ccc3N4)cn2)CC1 [Compound I-25]		
≥ 750			250 to 500	< 250	O=C1c2cc(Br)ccc2Nc2ccc(F)cc2N1Cc1ccccc1 [I-a]		

— US20200375999A1, “PHARMACEUTICAL COMBINATIONS OF EGFR INHIBITORS AND METHODS OF USE THEREOF” (DANA-FARBER CANCER INSTITUTE, INC., priority 2018, published 2020)
